From US8933039B2 (NPS Pharmaceuticals, Inc., priority 1995, dated 2015)
Non-standard residues stand in square brackets, D forms with d. Residues, ends and D or L forms follow the SMILES beside them. No end group written: not given here. Phg = N[C@H](C(=O)O)c1ccccc1; Tle = CC(C)(C)[C@H](N)C(=O)O; Aib = CC(C)(N)C(=O)O

Columns and labels:
DPP-IV = DPP-IV (Homo sapiens, UniProt P27487); assay: Assay for resistance to dipeptidyl peptidase IV (RP-HPLC of cleavage product); settings: human, isolated human placental DPP-IV (dipeptidyl peptidase IV), pH 7.4, % Cleaved by DPP-IV, as Example 3: human placental DPP-IV, 37° C., PBS pH 7.4
Procedure: The mixture was incubated at 37° C. in a circulating water bath for 24 hours. The incubation was quenched by the addition of 50 μl of a solution of diprotin A prepared at a concentration of 4 mg/ml in PBS. Each peptide was tested in duplicate.
Each sample was analyzed by reverse-phase (RP) HPLC as follows: 90 μl of the quenched incubation mixture was injected onto a Rainin Dynamax 300 Å, C18, 5 micron, 4.6×250 millimeter column. The samples were eluted with 0.1% trifluoroacetic acid (TFA) in water modified with 0.1% acetonitrile using a linear gradient and a flow rate of 1 ml per minute. Sample components were detected at 214 nanometers (nm). The extent of cleavage was measured by relative integration of the peak corresponding to the cleavage product compared to that of the remaining undigested parent peptide.

CD1 mice = assay: Intestinotrophic activity assessment: small bowel weight in mice; assay type: in vivo; settings: for % Activity (small bowel inducing activity relative to native rat GLP-2(1-33) = 100%): mice, as Example 4; for % Increase in small bowel weight: CD1 mice, 2.5 μg peptide s.c. b.i.d. in PBS, sacrificed 10 or 14 days, relative to vehicle only
Procedure: Recipients were CD1 mice obtained from Charles River Laboratory (Ontario, Canada). The CD1 mice were aged-matched females at time of injection (n=3-4 per group), 6 weeks of age, unless otherwise specified. The animals were allowed a minimum of 24 hours to acclimatize to the laboratory facility before the initiation of each experiment. Animals were identified by ear punch. The mice were not restricted by diet or activity during the experiments. The light/dark cycle was 12 hours, between 6 pm to 6 am. Controls were age- and sex-matched (n=3-4) animals. Mice were injected subcutaneously, twice a day (b.i.d.), with 2.5 μg peptide in a total volume of 0.5 cc of PBS and were monitored daily in the laboratory facility. Animals were sacrificed 10 or 14 days after injection, and were fasted at least 20 hours before sacrifice.
The mice were anaesthetised with CO2 and exsanguinated by cardiac puncture. Blood was collected in 75 μl of TED (Trasysol; EDTA (5000 KIU/ml: 1.2 mg/ml; Diprotin-A), and the blood was centrifuged at 14 k×g for 5 minutes and the plasma was stored at −70 prior to analysis. The small bowel was removed from the peritoneal cavity, from pylorus to cecum, cleaned weighed and measured. For comparative purpose, sections from each animal were obtained from the identical anatomical position. Fragments each measuring 1.5-2.0 cm in length were obtained 8±2 cm, 18±2 cm, 32±2 cm from pylorus for histomorphometry representing proximal jejunum, distal jejunum and distal ileum. Each small bowel fragment was opened longitudinally on its antimesenteric border in a tissue block and then placed on 10% formalin (vol./vol.) overnight, then transferred to 70% […].
Percentage change in small bowel weight was calculated by dividing the mean change in bowel weight of analog treated mice, relative to mice treated with vehicle only, by the mean bowel weight of mice treated with vehicle only, and multiplying this figure by 100.
Experiments assessing the small bowel inducing activity of various analogs was repeated as described above for Example 4. In these experiments, the small bowel inducing activity of each analog in mice was calculated relative to that of native rat GLP-2(1-33) (expressed as 100% of activity). Resistance of analogs to DPP-IV cleavage was performed as described above in Example 3.

Chain of DPP-IV (P27487 whole entry): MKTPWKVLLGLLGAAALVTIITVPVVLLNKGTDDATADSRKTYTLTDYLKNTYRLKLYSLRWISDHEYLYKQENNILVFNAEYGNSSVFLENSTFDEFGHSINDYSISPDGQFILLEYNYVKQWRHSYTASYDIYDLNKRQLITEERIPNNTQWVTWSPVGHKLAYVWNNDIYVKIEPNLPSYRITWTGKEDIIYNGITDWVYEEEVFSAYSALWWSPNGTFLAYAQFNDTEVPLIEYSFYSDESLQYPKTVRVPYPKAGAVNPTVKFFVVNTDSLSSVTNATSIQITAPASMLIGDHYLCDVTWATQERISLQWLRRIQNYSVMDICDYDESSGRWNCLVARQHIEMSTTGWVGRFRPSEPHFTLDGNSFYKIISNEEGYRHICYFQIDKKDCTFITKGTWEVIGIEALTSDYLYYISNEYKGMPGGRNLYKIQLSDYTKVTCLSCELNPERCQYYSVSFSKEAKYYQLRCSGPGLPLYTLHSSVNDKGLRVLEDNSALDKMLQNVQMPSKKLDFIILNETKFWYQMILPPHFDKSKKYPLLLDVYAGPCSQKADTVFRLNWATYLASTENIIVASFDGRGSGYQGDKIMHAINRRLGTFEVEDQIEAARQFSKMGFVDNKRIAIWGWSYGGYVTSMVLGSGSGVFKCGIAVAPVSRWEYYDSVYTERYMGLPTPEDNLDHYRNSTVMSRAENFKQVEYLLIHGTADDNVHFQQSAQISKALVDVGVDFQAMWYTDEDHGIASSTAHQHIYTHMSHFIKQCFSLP

metabolised at 24 h, 0.19 mg/ml (DPP-IV) [%] | Compound | % Activity (small bowel inducing activity relative to native rat GLP-2(1-33) = 100%) (CD1 mice) [%] | % Increase in small bowel weight (CD1 mice) [%]
0 | CC[C@H](C)[C@H](NC(=O)[C@H](Cc1ccccc1)NC(=O)[C@H](CC(=O)O)NC(=O)[C@H](CCCNC(=N)N)NC(=O)[C@H](C)NC(=O)[C@H](C)NC(=O)[C@H](CC(C)C)NC(=O)[C@H](CC(N)=O)NC(=O)[C@H](CC(=O)O)NC(=O)[C@H](CC(C)C)NC(=O)[C@@H](NC(=O)[C@@H](NC(=O)[C@H](CC(N)=O)NC(=O)[C@H](CCSC)NC(=O)[C@H](CCC(=O)O)NC(=O)[C@H](CC(=O)O)NC(=O)[C@H](CO)NC(=O)[C@H](Cc1ccccc1)NC(=O)[C@H](CO)NC(=O)CNC(=O)[C@H](CC(=O)O)NC(=O)[C@@H](NC(=O)[C@@H](N)Cc1c[nH]cn1)c1ccccc1)[C@@H](C)O)[C@@H](C)CC)C(=O)N[C@@H](CC(N)=O)C(=O)N[C@@H](Cc1c[nH]c2ccccc12)C(=O)N[C@@H](CC(C)C)C(=O)N[C@H](C(=O)N[C@@H](CCC(N)=O)C(=O)N[C@H](C(=O)N[C@@H](CCCCN)C(=O)N[C@H](C(=O)N[C@H](C(=O)N[C@@H](CC(=O)O)C(=O)O)[C@@H](C)O)[C@@H](C)CC)[C@@H](C)O)[C@@H](C)CC [[PhGly2]hGLP-2(1-33)] (H-H[Phg]DGSFSDEMNTILDNLAARDFINWLIQTKITD-OH) | 37 | 
13 | H-HVDGSFSDEMNTILDNLAARDFINWLIQTKITD-OH [[Val2]hGLP-2(1-33)] | 180 | 
0 | H-DADGSFSDEMNTILDNLAARDFINWLIQTKITD-OH [[Asp1]hGLP-2(1-33)] | 60 | 
50 | H-HAEGSFSDEMNTILDNLATRDFINWLIQTKITD-OH [[Glu3]ratGLP-2(1-33)] | 65 | 33
0 | CC[C@H](C)[C@H](NC(=O)[C@H](Cc1ccccc1)NC(=O)[C@H](CC(=O)O)NC(=O)[C@H](CCCNC(=N)N)NC(=O)[C@H](C)NC(=O)[C@H](C)NC(=O)[C@H](CC(C)C)NC(=O)[C@H](CC(N)=O)NC(=O)[C@H](CC(=O)O)NC(=O)[C@H](CC(C)C)NC(=O)[C@@H](NC(=O)[C@@H](NC(=O)[C@H](CC(N)=O)NC(=O)[C@H](CCSC)NC(=O)[C@H](CCC(=O)O)NC(=O)[C@H](CC(=O)O)NC(=O)[C@H](CO)NC(=O)[C@H](Cc1ccccc1)NC(=O)[C@H](CO)NC(=O)CNC(=O)[C@H](CC(=O)O)NC(=O)C(C)(C)NC(=O)[C@@H](N)Cc1c[nH]cn1)[C@@H](C)O)[C@@H](C)CC)C(=O)N[C@@H](CC(N)=O)C(=O)N[C@@H](Cc1c[nH]c2ccccc12)C(=O)N[C@@H](CC(C)C)C(=O)N[C@H](C(=O)N[C@@H](CCC(N)=O)C(=O)N[C@H](C(=O)N[C@@H](CCCCN)C(=O)N[C@H](C(=O)N[C@H](C(=O)N[C@@H](CC(=O)O)C(=O)O)[C@@H](C)O)[C@@H](C)CC)[C@@H](C)O)[C@@H](C)CC [[Aib2]hGLP-2(1-33)] (H-H[Aib]DGSFSDEMNTILDNLAARDFINWLIQTKITD-OH) | 202 | 
0 | H-HSDGSFSDEMNTILDNLAARDFINWLIQTKITD-OH [[Ser2]hGLP-2(1-33)] | 167 | 
55 | H-HADGSFSDEMNTILDNLAARDFINWLIQTKITE-OH [[Glu33]hGLP-2(1-33)] | 121 | 
0 | RRADGSFSDEMNTILDNLATRDFINWLIQTKITD [[Arg-2,Arg-1]ratGLP-2(2-33)] |  | 

The remaining lines, values behind:

Compound | metabolised at 24 h, 0.19 mg/ml (DPP-IV) [%] | % Activity (small bowel inducing activity relative to native rat GLP-2(1-33) = 100%) (CD1 mice) [%] | % Increase in small bowel weight (CD1 mice) [%]
H-HNDGSFSDEMNTILDNLAARDFINWLIQTKITD-OH [[Asn2]hGLP-2(1-33)] | 0 | 67 | 
CC[C@H](C)[C@H](NC(=O)[C@H](Cc1ccccc1)NC(=O)[C@H](CC(=O)O)NC(=O)[C@H](CCCNC(=N)N)NC(=O)[C@H](C)NC(=O)[C@H](C)NC(=O)[C@H](CC(C)C)NC(=O)[C@H](CC(N)=O)NC(=O)[C@H](CC(=O)O)NC(=O)[C@H](CC(C)C)NC(=O)[C@@H](NC(=O)[C@@H](NC(=O)[C@H](CC(N)=O)NC(=O)[C@H](CCSC)NC(=O)[C@H](CCC(=O)O)NC(=O)[C@H](CC(=O)O)NC(=O)[C@H](CO)NC(=O)[C@H](Cc1ccccc1)NC(=O)[C@H](CO)NC(=O)CNC(=O)[C@H](CC(=O)O)NC(=O)[C@@H](NC(=O)[C@@H](N)Cc1c[nH]cn1)C(C)(C)C)[C@@H](C)O)[C@@H](C)CC)C(=O)N[C@@H](CC(N)=O)C(=O)N[C@@H](Cc1c[nH]c2ccccc12)C(=O)N[C@@H](CC(C)C)C(=O)N[C@H](C(=O)N[C@@H](CCC(N)=O)C(=O)N[C@H](C(=O)N[C@@H](CCCCN)C(=O)N[C@H](C(=O)N[C@H](C(=O)N[C@@H](CC(=O)O)C(=O)O)[C@@H](C)O)[C@@H](C)CC)[C@@H](C)O)[C@@H](C)CC [[tBuGly2]hGLP-2] (H-H[Tle]DGSFSDEMNTILDNLAARDFINWLIQTKITD-OH) | 0 | 123 | 
HSQGSFSDEMNTILDNLAARDFINWLIQTKITD [[Ser2,Gln3]hGLP-2(1-33)] | 0 |  | 
H-HFDGSFSDEMNTILDNLAARDFINWLIQTKITD-OH [[Phe2]hGLP-2(1-33)] | 0 | 50 | 
H-YADGSFSDEMNTILDNLATRDFINWLIQTKITD-OH [[Tyr1]ratGLP-2(1-33)] | 100 | 81 | 37
CC[C@H](C)[C@H](NC(=O)[C@H](Cc1ccccc1)NC(=O)[C@H](CC(=O)O)NC(=O)[C@H](CCCNC(=N)N)NC(=O)[C@H](C)NC(=O)[C@H](C)NC(=O)[C@H](CC(C)C)NC(=O)[C@H](CC(N)=O)NC(=O)[C@H](CC(=O)O)NC(=O)[C@H](CC(C)C)NC(=O)[C@@H](NC(=O)[C@@H](NC(=O)[C@H](CC(N)=O)NC(=O)[C@H](CCSC)NC(=O)[C@H](CCC(=O)O)NC(=O)[C@H](CC(=O)O)NC(=O)[C@H](CO)NC(=O)[C@H](Cc1ccccc1)NC(=O)[C@H](CO)NC(=O)CNC(=O)[C@H](CC(=O)O)NC(=O)[C@H](C)NC(=O)[C@@H](N)Cc1c[nH]cn1)[C@@H](C)O)[C@@H](C)CC)C(=O)N[C@@H](CC(N)=O)C(=O)N[C@@H](Cc1c[nH]c2ccccc12)C(=O)N[C@@H](CC(C)C)C(=O)N[C@H](C(=O)N[C@@H](CCC(N)=O)C(=O)N[C@H](C(=O)N[C@@H](CCCCN)C(=O)N[C@H](C(=O)N[C@H](C(=O)N[C@@H](CC(=O)O)C(=O)NCCCCNC(=N)N)[C@@H](C)O)[C@@H](C)CC)[C@@H](C)O)[C@@H](C)CC [[Agm34]hGLP-2(1-34)] |  | 97 | 
H-HADGSFSDEMNTILDNLATRDFINWLIQTK-OH [ratGLP-2(1-30)] |  | 23 | 
H-HADGSFSDEMNTILDNLAAQDFINWLIQTKITD-OH [[Gln20]hGLP-2(1-33)] |  | 80 | 
H-HADGSFSDEMNTILDSRRARDFINWLIQTKITD-OH [[Ser16, Arg17, Arg18]hGLP-2(1-33)] |  | 59 | 
H-HGDGSFSDEMNTILDNLAARDFINWLIQTAITD-OH [[Gly2,Ala30]hGLP-2(1-33)] |  | 24 | 
H-HADGSFSDYSKYLDNLAARDFINWLIQTKITD-OH [[Tyr9, Ser10, Lys11, Tyr12, des-Ile13]hGLP-2(1-33)] |  | 94 | 41
H-HADGSFSDEMNTILDNLATRDFINW-OH [ratGLP-2(1-25)] |  | 8 | 
H-HGDGSFSDEMNTILDNLAARDFINWLAQTKITD-OH [[Gly2,Ala27]hGLP-2(1-33)] |  | 82 | 22
